Assay [1] can be described thus: Selectivity ratio of Ki for sigma 1 receptor in guinea pig brain to Ki for sigma 2 receptor in rat liver.
The target of assay [2] is T1, Alpha-2A adrenergic receptor (Homo sapiens) (UniProt P08913).
T1 sequence (whole entry): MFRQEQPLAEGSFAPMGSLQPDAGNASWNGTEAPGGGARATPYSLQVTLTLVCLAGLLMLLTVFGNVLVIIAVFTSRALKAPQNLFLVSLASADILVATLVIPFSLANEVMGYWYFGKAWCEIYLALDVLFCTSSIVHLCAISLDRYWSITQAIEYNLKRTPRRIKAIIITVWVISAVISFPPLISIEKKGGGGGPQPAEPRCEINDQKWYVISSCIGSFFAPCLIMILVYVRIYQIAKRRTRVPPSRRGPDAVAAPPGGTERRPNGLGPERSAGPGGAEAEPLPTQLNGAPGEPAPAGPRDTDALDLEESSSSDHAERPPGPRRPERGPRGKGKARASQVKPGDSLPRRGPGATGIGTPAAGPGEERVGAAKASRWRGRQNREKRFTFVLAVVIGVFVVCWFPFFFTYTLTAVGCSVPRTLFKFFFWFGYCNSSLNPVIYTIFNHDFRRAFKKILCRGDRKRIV
The assay can be described thus: Inhibition of alpha-2A adrenergic receptor at 10 uM by NIMH PDSP.

The target in assay [3] is T2, Alpha-2C adrenergic receptor (Homo sapiens) (UniProt P18825).
T2 sequence (whole entry): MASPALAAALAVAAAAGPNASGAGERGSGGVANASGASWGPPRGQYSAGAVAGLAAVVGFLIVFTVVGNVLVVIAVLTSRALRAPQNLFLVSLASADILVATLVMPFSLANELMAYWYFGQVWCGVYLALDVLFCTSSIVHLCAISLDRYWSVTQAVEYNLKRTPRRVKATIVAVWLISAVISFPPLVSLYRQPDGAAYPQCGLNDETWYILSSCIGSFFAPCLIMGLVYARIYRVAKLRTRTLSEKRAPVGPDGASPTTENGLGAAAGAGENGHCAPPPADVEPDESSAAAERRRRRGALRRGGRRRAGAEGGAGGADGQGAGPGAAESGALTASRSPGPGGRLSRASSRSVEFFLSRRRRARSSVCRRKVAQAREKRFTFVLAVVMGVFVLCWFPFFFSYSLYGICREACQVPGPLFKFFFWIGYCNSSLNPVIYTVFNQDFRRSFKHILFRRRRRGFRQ
The assay can be described thus: Inhibition of alpha-2C adrenergic receptor at 10 uM by NIMH PDSP.

For assay [4], the target named is Beta-1 adrenergic receptor (Homo sapiens) (UniProt P08588). The assay can be described thus: Inhibition of beta-1 adrenergic receptor at 10 uM by NIMH PDSP.
Another assay is filed under the species Rattus norvegicus. The experiment in a line: Inhibition of BZP receptor in rat brain at 10 uM by NIMH PDSP. The class given is tissue-based.
The target in assay [5] is D(2) dopamine receptor (Homo sapiens) (UniProt P14416). The assay can be described thus: Inhibition of D2 dopamine receptor at 10 uM by NIMH PDSP.
Assay [6] deals with D(3) dopamine receptor (Homo sapiens) (UniProt P35462). The assay can be described thus: Inhibition of D3 dopamine receptor at 10 uM by NIMH PDSP.
Assay [7] concerns the target D(1B) dopamine receptor (Homo sapiens) (UniProt P21918). The assay can be described thus: Inhibition of D5 dopamine receptor at 10 uM by NIMH PDSP.
Assay [8] addresses Histamine H3 receptor (Homo sapiens) (UniProt Q9Y5N1). The experiment in a line: Inhibition of H3 receptor at 10 uM by NIMH PDSP.
Assay [9] addresses 5-hydroxytryptamine receptor 1B (Homo sapiens) (UniProt P28222). The assay can be described thus: Inhibition of 5-HT1B receptor at 10 uM by NIMH PDSP.
Assay [10] addresses 5-hydroxytryptamine receptor 6 (Homo sapiens) (UniProt P50406). The experiment in a line: Inhibition of 5-HT6 receptor at 10 uM by NIMH PDSP.
For assay [11], the target named is Muscarinic acetylcholine receptor M2 (Homo sapiens) (UniProt P08172). The assay can be described thus: Inhibition of M2 muscarinic receptor at 10 uM by NIMH PDSP.
In assay [12] the target is Muscarinic acetylcholine receptor M4 (Homo sapiens) (UniProt P08173). The experiment in a line: Inhibition of M4 muscarinic receptor at 10 uM by NIMH PDSP.
Assay [13] concerns the target Muscarinic acetylcholine receptor M5 (Homo sapiens) (UniProt P08912). The assay can be described thus: Inhibition of M5 muscarinic receptor at 10 uM by NIMH PDSP.
The target in assay [14] is T3, Kappa-type opioid receptor (Homo sapiens, UniProt P41145). The experiment in a line: Inhibition of kappa opioid receptor by NIMH PDSP.
A short description of assay [15]: Selectivity ratio of Ki for sigma 2 receptor in rat liver to Ki for sigma 1 receptor in guinea pig brain.
Assay [16] deals with Sodium-dependent dopamine transporter (Homo sapiens) (UniProt Q01959). The experiment in a line: Inhibition of DAT transporter at 10 uM by NIMH PDSP.
Assay [17] addresses T3, Kappa-type opioid receptor. The experiment in a line: Inhibition of kappa opioid receptor at 10 uM by NIMH PDSP.
Assay [18] addresses Muscarinic acetylcholine receptor M2 (Homo sapiens, UniProt P08172). The assay can be described thus: Inhibition of M2 muscarinic receptor by NIMH PDSP.
Assay [19] has as its target Muscarinic acetylcholine receptor M4 (Homo sapiens, UniProt P08173). The experiment in a line: Inhibition of M4 muscarinic receptor by NIMH PDSP.
Assay [20] concerns the target Muscarinic acetylcholine receptor M5 (Homo sapiens, UniProt P08912). The experiment in a line: Inhibition of M5 muscarinic receptor by NIMH PDSP.
The target in assay [21] is Alpha-1A adrenergic receptor (Homo sapiens, UniProt P35348). The experiment in a line: Inhibition of alpha-1A adrenergic receptor by NIMH PDSP.
Another assay concerns the target D(1A) dopamine receptor (Homo sapiens, UniProt P21728). The assay can be described thus: Inhibition of D1 dopamine receptor by NIMH PDSP.
Assay [22] deals with Sodium-dependent noradrenaline transporter (Homo sapiens, UniProt P23975). The assay can be described thus: Inhibition of NET transporter at 10 uM by NIMH PDSP.
Assay [23] addresses Alpha-2A adrenergic receptor (Homo sapiens, UniProt P08913). The assay can be described thus: Inhibition of alpha-2A adrenergic receptor by NIMH PDSP.
The target of assay [24] is Alpha-2B adrenergic receptor (Homo sapiens, UniProt P18089). The experiment in a line: Inhibition of alpha-2B adrenergic receptor by NIMH PDSP.

The text below walks through data of ChEMBL document CHEMBL1821607, “N-Arylalkyl-2-azaadamantanes as cage-expanded polycarbocyclic sigma (σ) receptor ligands” (Bioorg Med Chem Lett, 2011).

Chain of 5-hydroxytryptamine receptor 6 (Homo sapiens) (P50406 whole entry): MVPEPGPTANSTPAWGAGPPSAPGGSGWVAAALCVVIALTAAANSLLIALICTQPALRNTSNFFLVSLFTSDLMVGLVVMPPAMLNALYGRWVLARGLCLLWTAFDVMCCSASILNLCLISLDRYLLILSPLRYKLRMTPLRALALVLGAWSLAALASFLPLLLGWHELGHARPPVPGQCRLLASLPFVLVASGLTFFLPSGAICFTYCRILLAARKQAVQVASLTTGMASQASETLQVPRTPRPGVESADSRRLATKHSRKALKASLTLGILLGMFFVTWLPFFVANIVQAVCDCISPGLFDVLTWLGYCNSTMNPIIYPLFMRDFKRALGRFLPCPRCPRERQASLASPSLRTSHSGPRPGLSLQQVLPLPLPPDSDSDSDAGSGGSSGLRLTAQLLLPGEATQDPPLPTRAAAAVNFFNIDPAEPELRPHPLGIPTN
Chain of Histamine H3 receptor (Homo sapiens) (Q9Y5N1 whole entry): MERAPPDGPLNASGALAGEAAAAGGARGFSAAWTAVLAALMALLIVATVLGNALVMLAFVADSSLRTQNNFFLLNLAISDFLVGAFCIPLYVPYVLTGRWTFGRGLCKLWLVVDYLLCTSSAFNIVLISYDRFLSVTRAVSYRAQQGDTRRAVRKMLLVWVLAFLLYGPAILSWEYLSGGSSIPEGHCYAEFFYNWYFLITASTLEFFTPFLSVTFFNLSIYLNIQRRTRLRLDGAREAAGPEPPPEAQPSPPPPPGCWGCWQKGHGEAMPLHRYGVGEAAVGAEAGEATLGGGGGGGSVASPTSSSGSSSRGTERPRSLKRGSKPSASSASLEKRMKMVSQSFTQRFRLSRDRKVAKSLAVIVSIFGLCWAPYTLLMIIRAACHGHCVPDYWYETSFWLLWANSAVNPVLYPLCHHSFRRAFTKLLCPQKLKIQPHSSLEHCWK
Chain of D(1B) dopamine receptor (Homo sapiens) (P21918 whole entry): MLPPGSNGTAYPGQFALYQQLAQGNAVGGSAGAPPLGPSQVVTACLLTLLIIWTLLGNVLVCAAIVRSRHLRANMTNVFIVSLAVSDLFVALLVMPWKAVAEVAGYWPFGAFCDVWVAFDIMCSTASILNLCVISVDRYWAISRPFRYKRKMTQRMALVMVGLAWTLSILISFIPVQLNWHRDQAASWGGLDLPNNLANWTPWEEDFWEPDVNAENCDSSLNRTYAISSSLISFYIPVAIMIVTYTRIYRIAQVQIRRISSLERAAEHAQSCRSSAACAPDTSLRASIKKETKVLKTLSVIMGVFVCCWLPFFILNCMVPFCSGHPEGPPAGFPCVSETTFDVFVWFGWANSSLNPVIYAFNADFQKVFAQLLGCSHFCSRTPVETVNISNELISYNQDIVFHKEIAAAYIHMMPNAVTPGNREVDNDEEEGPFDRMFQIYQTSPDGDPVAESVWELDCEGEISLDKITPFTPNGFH
Chain of D(2) dopamine receptor (Homo sapiens) (P14416 whole entry): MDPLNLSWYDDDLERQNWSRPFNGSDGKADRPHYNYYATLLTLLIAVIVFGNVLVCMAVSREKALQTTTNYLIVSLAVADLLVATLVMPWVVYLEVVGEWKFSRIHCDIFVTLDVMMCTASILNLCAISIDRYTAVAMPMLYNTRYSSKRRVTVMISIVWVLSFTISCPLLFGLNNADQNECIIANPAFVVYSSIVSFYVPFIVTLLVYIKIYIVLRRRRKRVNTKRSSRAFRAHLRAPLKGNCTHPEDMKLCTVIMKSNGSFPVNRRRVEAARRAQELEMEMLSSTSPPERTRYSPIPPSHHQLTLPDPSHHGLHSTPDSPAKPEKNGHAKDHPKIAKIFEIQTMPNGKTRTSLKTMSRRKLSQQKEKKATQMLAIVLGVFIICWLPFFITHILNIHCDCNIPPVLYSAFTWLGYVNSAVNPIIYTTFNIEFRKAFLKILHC
T3 sequence (P41145 whole entry): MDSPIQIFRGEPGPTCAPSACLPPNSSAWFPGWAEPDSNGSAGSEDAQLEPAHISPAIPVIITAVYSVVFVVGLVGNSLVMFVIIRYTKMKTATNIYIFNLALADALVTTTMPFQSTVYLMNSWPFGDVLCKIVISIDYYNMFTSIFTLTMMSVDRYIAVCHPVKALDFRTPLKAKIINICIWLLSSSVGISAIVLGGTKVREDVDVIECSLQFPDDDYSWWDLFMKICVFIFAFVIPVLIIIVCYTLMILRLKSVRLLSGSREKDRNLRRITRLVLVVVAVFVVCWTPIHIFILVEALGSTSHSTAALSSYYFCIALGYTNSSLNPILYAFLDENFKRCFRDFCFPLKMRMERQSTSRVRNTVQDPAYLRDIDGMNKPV
Chain of 5-hydroxytryptamine receptor 1B (Homo sapiens) (P28222 whole entry): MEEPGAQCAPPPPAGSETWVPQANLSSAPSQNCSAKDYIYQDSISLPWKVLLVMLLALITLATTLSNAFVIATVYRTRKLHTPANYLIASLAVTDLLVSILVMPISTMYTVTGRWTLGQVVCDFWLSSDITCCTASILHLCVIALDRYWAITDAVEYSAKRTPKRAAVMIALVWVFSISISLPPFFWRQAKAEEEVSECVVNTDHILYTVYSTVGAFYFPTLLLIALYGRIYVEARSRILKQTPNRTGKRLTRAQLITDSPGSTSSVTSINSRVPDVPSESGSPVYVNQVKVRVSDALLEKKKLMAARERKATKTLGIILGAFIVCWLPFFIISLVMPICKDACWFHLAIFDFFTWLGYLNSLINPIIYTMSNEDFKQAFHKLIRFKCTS
Chain of Beta-1 adrenergic receptor (Homo sapiens) (P08588 whole entry, looked up): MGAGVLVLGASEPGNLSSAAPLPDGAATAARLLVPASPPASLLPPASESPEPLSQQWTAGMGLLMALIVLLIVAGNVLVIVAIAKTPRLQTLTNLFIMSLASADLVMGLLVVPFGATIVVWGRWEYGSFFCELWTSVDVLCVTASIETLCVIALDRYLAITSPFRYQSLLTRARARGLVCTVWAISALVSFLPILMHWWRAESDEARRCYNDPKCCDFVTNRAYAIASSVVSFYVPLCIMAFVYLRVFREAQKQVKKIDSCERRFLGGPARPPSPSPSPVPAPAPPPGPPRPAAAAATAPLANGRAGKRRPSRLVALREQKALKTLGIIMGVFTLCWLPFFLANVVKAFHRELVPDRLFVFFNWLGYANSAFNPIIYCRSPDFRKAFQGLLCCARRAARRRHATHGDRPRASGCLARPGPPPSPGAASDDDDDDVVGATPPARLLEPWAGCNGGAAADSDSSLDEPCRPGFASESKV
Chain of D(3) dopamine receptor (Homo sapiens) (P35462 whole entry): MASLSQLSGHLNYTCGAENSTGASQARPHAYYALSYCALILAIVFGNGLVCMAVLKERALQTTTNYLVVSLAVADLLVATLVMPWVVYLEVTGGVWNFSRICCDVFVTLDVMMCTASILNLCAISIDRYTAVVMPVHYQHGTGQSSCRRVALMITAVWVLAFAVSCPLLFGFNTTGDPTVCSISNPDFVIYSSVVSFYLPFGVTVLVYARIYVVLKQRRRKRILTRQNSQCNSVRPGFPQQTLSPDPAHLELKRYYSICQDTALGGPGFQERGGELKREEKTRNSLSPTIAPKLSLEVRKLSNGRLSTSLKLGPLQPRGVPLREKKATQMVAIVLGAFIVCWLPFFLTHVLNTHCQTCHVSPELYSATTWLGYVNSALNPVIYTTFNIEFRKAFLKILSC
Chain of Muscarinic acetylcholine receptor M4 (P08173 whole entry): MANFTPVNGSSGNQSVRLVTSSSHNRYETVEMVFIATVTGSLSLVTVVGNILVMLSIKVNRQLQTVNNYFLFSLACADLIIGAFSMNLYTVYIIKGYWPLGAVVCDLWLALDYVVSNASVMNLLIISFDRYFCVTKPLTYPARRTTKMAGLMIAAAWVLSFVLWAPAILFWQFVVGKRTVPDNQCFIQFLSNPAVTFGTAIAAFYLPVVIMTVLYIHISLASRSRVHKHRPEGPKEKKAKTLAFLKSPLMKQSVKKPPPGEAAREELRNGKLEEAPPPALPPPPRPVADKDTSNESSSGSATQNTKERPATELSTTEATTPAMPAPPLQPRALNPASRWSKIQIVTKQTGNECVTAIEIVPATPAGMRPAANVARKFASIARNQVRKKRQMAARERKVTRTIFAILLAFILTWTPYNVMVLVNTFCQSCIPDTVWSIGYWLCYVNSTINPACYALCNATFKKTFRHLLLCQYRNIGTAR
Chain of Muscarinic acetylcholine receptor M4 (Homo sapiens) (P08173 whole entry): as above
Chain of Muscarinic acetylcholine receptor M5 (P08912 whole entry): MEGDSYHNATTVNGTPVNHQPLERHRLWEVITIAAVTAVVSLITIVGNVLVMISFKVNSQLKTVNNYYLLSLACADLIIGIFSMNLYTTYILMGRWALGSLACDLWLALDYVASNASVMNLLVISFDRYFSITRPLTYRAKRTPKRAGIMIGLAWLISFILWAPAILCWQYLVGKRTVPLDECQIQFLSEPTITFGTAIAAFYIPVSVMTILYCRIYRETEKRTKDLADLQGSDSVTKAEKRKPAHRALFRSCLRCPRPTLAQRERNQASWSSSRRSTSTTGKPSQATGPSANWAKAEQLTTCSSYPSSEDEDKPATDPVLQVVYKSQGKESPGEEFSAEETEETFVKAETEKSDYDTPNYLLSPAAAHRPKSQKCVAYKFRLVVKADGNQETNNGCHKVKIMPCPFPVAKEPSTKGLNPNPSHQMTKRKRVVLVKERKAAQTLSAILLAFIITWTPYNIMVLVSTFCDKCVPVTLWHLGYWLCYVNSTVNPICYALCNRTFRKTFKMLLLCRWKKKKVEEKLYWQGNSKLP
Chain of Muscarinic acetylcholine receptor M5 (Homo sapiens) (P08912 whole entry): as above

As for `OC12CC3CC(CC(C3)N1Cc1cccc(F)c1)C2` (racemic), the Ratio Ki in [1] is 1.2. Moreover, the inhibition (in [2]; in assay [3]; in assay [4]; in the assay filed under Rattus norvegicus; in assay [5]; in assay [6]) was below 50% in each case. The inhibition in assay [7], in assay [8], in [9], in assay [10], in assay [11] and in assay [12] was below 50% each time. This compound came in with an inhibition in assay [13] below 50%. In addition, affinity in assay [14] was put at a Ki of 1.2 µM.
For the compound `c1ccc(CN2C3CC4CC(C3)CC2C4)cc1`, the Ratio Ki in [15] amounted to 3.3. Further, the inhibition (in assay [2]; in assay [3]; in assay [4]; in the assay listed under Rattus norvegicus; in [5]; in assay [6]) was below 50% in each case. The inhibition in assay [7], in assay [16], in assay [8], in assay [9], in assay [10] and in [17] was below 50% in each case. In addition, the results for the inhibition constant (Ki) in assay [18], in assay [19] and in assay [20] were 4.3 µM, 1.78 µM and 6.55 µM, respectively.
`Fc1cccc(CN2C3CC4CC(C3)CC2C4)c1`: in assay [15], the Ratio Ki worked out at 6. Further, the inhibition (in [2]; in assay [3]; in assay [4]; in the assay listed under Rattus norvegicus; in assay [5]; in assay [6]) was below 50% throughout. The inhibition in assay [7], in assay [16], in [8], in [9], in assay [10] and in assay [17] was below 50% each time. For the same compound, the inhibition constant (Ki) in assay [21] is above 10 µM; on D(1A) dopamine receptor, above 10 µM; in assay [18] it was 3.54 µM; in assay [19], 1.36 µM; in assay [20], 5.48 µM.
In the case of `OC12CC3CC(CC(C3)N1Cc1ccccc1)C2` (racemic), the Ratio Ki in [1] worked out at 1.4. For the same compound, the inhibition (in assay [3]; in [4]; in the assay filed under Rattus norvegicus; in [5]; in [6]; in assay [7]) was below 50% each time. Moreover, the inhibition in [8], in assay [9], in assay [10], in assay [11], in [12] and in [13] was below 50% in each case. Further, the inhibition in assay [22] was below 50%. Moreover, the Ki in assay [23] was above 10 µM; in assay [24] it was above 10 µM; in [14], 0.662 µM.
